SMILES strings stand for the structures. Some results are limits rather than exact numbers.

The target in one assay is T1, Aβ (1-42) (Homo sapiens, UniProt P05067).
T1 construct: Required Aβ (1-42) (California Peptide); purchased California Peptide
The assay can be described thus: Batym Assay: Aβ (1-42) aggregation, Thioflavin T fluorescence. The note with it: Aβ1-42 final 100 μM, 37° C., 1 day, read-out: BAYTM IC50. The class given is biochemical. As to the method:
Required Aβ (1-42) (California Peptide) was dried from its HFIP stock solution. The Aβ (1-42) was dissolved in DMSO and then mixed with phosphate buffered saline (PBS) (pH 7.4). The mixed Aβ (1-42) solution was filtered with a Omnipore membrane 0.2-μm syringe filter (Millipore, Bedford, Mass.). The compound to be tested in DMSO (50× concentrate) was put into each well (0.5 μL/well) of a 96-well plate. The Aβ (1-42) solution was added into each well (24.5 μL/well). The plate was centrifuged at 1,000 g for 5 minutes and incubated at 37° C. for 1 day (Aβ1-42; final concentration 100 μM).
After incubation, Thioflavin T (ThT) (30 μM) solution in glycine-NaOH buffer (pH 8.5, 50 mM) was added into each well (250 μL/well), fluorescence was measured (ex=440/20 nm; em=485/20 nm) using a fluorescence plate reader. The inhibitory activity was calculated as the reduction of fluorescence with the following formula: Inhibition (%)={(F(Aβ)−F(Aβ+compound)}/{F(Aβ)−[…]}×100
The IC50s were calculated by a curve fitting program using the following equation. The data were obtained from two different experiments in triplicate. Inhibition (x)=100−100/{1+(x/IC50)^n}. • x=concentration of tested compound (M). • IC50=(M). • n=Hill coefficient.

A further assay has as its target T2, Aβ (1-40) peptide (Homo sapiens, UniProt P05067).
T2 construct: Aβ (1-40) peptide in 20% HFIP
The assay can be described thus: BAPA (Beta-Amyloid Peptide Aggregation, pH 6.0), filtration endpoint. The class given is biochemical. The note with it: Aβ(1-40) 33 μM, pH 6.0, 2 to 4 hours, room temperature. As to the method:
• 1) Prepare the reaction mix above by mixing the components and storing on ice. • 2) Pipet 14.5 μL of reaction mixture into each of 50 wells of a polystyrene U-bottom 96-well microtiter plate (Coming 25881-96) on ice. • 3) Add 1.7 μL of diluted compound to be tested to each well in a column of eight, including solvent control. Serial 3-fold dilutions from 1 mM (100 μM final) in assay buffer-urea=7 dilutions+zero. Each 96-well plate can therefore accommodate 11 samples+1 Congo Red control (0.039-5 μM final in 2-fold steps). • 4) Seal the plate with aluminum film and incubate for 10 minutes on ice. • 5) Raise the temperature to 37° C. and incubate for 3 to 5 hours (depends on the lot of the peptide). • 6) Remove the aluminum film and add 250 μL/well of 5 μM thioflavin T (ThT) [T-3516, Sigma-Aldrich] in 50 mM glycine-NaOH, pH 8.5. Read fluorescence on a plate reader (ex=440 nm/20 nm; em=485 nm/20 nm) within 5 minutes. BAPA (Beta-Amyloid Peptide Aggregation) This assay is used to provide a measure of inhibition by a compound against the aggregation behavior of the β-amyloid peptide. The purpose of this assay is to provide a higher volume method of assaying the amount of β-amyloid aggregation using an endpoint assay based on filtration. In this assay, hexafluoroisopropanol (HFIP) is used to break down the initial amyloid peptide to a monomer state and use a concentration of 33 μM which is high enough so that aggregation will occur at pH 6.0 in several hours. Methods: Beta-Amyloid Peptide Aggregation, pH 6.0 (BAPA) In a 96-well plate (Costar 3794), we add 25 μL 50 mM phosphate buffer, pH 6.0, 10 μL 0.5 mg/mL Aβ (1-40) peptide in 20% HFIP+0.1 μL/assay radioiodinated ^125I Aβ (1-40) [^125I Aβ(1-40)], and 1 μL of the compound to be tested starting at 50 mM with a concentration of DMSO<1%. Then, we incubate for 2 to 4 hours at room temperature. We stop the reaction with 200 μL of 50 mM phosphate buffer, pH 6.0, and filter it through a 0.2 μm 96-well filter plate (Millipore MAGU […]). We wash the filter plate with 100 μL of the same phosphate buffer. Aggregation was detected on a Microbeta counter after impregnating the filters with Meltilex (1450-441) and is corrected for background.

T1 sequence (P05067 672-713 limits assumed): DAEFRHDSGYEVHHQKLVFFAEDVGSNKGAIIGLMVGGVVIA
T2 sequence (P05067 672-711 limits assumed): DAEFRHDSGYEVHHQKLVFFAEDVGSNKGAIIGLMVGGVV

On to `CCCCCN(CCCCC)C1Cc2ccc(Nc3ccc(C)cc3C(=O)O)cc2C1` (stereo not drawn) [Example 6, 2-(2-Dipentylamino-indan-5-yl-amino)-5-methyl-benzoic acid], for which the 50% inhibitory concentration (IC50) was more than 100 µM on Aβ (1-42) and 118 µM against Aβ (1-40) peptide.

As for `CCCCCN(CCCCC)C1Cc2ccc(Nc3ccc([N+](=O)[O-])cc3C(=O)O)cc2C1` (stereo not drawn) [Example 1, 2-[(2-N,N-di-n-pentylamino)-indan-5-yl]amino-5-nitro-benzoic Acid], the figures for the IC50 at Aβ (1-42) and on Aβ (1-40) peptide were more than 100 µM and 33 µM, respectively.

In the case of `CCCCCN(CCCCC)C1Cc2ccc(Nc3ccc(C(=O)O)cc3[N+](=O)[O-])cc2C1` (stereo not drawn) [Example 7, 4-(2-Dipentylamino-indan-5-yl-amino)-3-nitro-benzoic Acid], the half-maximal inhibitory concentration (IC50) on Aβ (1-42) was more than 100 µM; against Aβ (1-40) peptide it was 118 µM.

As for `O=C(O)c1cc([N+](=O)[O-])ccc1Nc1ccc2c(c1)CC(NCc1ccc(F)cc1)C2` (stereo not drawn) [Example 10, 2-[2-(4-Fluorobenzylamino)-indan-5-ylamino]-5-nitro-benzoic acid], the results for the IC50 on Aβ (1-42) and against Aβ (1-40) peptide were 53.8 µM and more than 100 µM, respectively.

On to `CCCCCNC1Cc2ccc(Nc3ccc([N+](=O)[O-])cc3C(=O)O)cc2C1` (stereo not drawn) [Example 12, 2-[2-(n-Pentylamino)-indan-5-ylamino]-5-nitro-benzoic acid], for which the results for the IC50 at Aβ (1-42) and against Aβ (1-40) peptide were more than 100 µM and 5 µM, respectively.

Consider `COc1ccc(Nc2ccc3c(c2)CC(NCc2ccc(Cl)c(Cl)c2)C3)c(C(=O)O)c1` (stereo not drawn) [Example 5, 2-[2-(3,4-Dichlorobenzylamino)-indan-5-ylamino]-5-methoxy-benzoic acid], for which the IC50 on Aβ (1-42) is more than 100 µM; at Aβ (1-40) peptide it was 165 µM.

As usually defined, the IC50 is the concentration that gives 50% inhibition.

These data come from patent US6949575B2, “Method of inhibiting amyloid protein aggregation and imaging amyloid deposits using aminoindane derivatives” (Pfizer Inc., priority 2000, dated 2005).
